Results taken from patent publication EP4772505A1, “COMPOUND FOR DEGRADING ANDROGEN RECEPTOR AND MEDICAL USE THEREOF” (Ubix Therapeutics, Inc., priority 2023, dated 2025).

What follows are molecules tested against T1, Androgen Receptor (AR) (Homo sapiens, UniProt P10275) (assay: Pharmacodynamic efficacy: AR degradation in tumor of VCaP xenograft model after oral administration). Settings: 10 mg/kg orally once daily for three days, tumor collected 6 hours after final administration.
T1 sequence (P10275 1-920): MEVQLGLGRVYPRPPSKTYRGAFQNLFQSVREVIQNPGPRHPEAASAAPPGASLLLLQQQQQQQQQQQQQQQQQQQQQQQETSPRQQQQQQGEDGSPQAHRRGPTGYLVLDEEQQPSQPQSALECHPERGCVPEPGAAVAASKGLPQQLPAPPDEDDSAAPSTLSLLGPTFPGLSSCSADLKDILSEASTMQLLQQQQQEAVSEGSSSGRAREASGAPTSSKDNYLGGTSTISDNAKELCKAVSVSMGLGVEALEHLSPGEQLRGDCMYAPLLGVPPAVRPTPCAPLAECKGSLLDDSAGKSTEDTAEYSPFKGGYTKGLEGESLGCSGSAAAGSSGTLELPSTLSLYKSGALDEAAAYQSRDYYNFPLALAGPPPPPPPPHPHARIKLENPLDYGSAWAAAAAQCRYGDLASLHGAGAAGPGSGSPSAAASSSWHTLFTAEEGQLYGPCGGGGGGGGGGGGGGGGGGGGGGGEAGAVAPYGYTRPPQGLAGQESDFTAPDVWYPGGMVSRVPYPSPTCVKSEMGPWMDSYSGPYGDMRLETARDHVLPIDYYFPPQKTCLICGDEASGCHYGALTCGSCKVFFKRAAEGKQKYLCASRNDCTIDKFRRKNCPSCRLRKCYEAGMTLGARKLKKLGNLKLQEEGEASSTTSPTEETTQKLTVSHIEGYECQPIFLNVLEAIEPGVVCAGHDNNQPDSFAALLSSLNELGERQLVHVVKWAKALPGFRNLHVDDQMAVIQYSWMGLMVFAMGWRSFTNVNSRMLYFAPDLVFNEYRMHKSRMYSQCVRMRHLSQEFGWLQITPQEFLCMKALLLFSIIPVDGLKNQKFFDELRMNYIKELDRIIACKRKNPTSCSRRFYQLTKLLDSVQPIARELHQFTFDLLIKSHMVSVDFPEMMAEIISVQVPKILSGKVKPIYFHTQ
Assay type: in vivo, CB17/SCID mice
Set-up: After sacrifice, tumor tissue was collected, washed in PBS, and stored at -80°C; from tissue; host or cells: VCaP xenograft tumour from CB17/SCID mice
Description: The protocol for the creation of a xenograft model and pharmacodynamic experiments using VCaP cells was as follows.
[Cell Culture] VCaP cells were resuspended at a density of 4 x 10^5/mL in a mixture of DMEM MEDIUM (Hyclone, SH30243.01), 10% FBS (Hyclone, SV30207.02), 1% Penicillin-streptomycin (Welgene, LS 202-02), and 1x Non-essential amino acid solution (100x) (Sigma, M7145-100mL). 50 mL of the cells were seeded into CELLBIND cell culture flasks (150 cm^2) (Corning, 3291) and cultured for 5 days.
[Xenotransplantation] The media was removed from the flask containing cultured VCaP cells and washed with 10 mL of PBS (Welgene, LB001-02). After removing the PBS, 2 mL of 1x 0.05% Trypsin-EDTA (Welgene, LS015-01) was added and treated in a cell incubator for 3 minutes. Then, 10 mL of media was added, pipetted, and placed in a 50 mL tube. The pellets were collected by centrifugation at 500 g for 5 minutes. The collected pellets were washed once more with 20 mL of PBS. The washed pellets were collected by centrifugation at 500 g for 5 minutes. The PBS was removed, and 500 µL of HBSS (Gibco, 14025092) was added and pipetted. After diluting 100-fold in HBSS and measuring the cell count, the concentration was calculated as 3 x 10^6/50 µL/mouse, diluted in HBSS, and stored in an ice bucket. An equal volume of matrigel (R&D system, 3432-005-01) was added to the stored cells, homogenized by pipetting, and then 100 µL per mouse was inoculated subcutaneously into the right flank of CB17/SCID mice.
[Measurement of tumor size and division into groups] After 2-3 weeks of inoculation with cancer cells, the transplanted cancer cells grew and were measured in size using a caliper. The measured tumor size was calculated as [long axis x short axis^2 x 0.5]. When the tumor size exceeded approximately […], the experimental animals were divided into groups based on the average tumor size and the concentration of the drug to be administered. The groups always included a group containing only the solvent (vehicle) without the drug.
[Drug Preparation and Administration] The drug was dissolved in a solvent and orally administered to each experimental animal in a volume of 200 µL (approximately 8 mL/kg). The solvent composition was 3% DMSO (Sigma, D8418), 10% Cremophor EL (Sigma, C5135), 20% PEG400 (Sigma, 06855-1KG), and 67% distilled water. The preparation method was as follows. Depending on the drug concentration (e.g., 10 or 30 mg/kg), each drug was weighed and dissolved in DMSO corresponding to 3% of the total solvent volume. […]
[Cancer Tissue Extraction] […] Changes in tumor size were measured during the prescribed administration period, and the mice were sacrificed 6 hours after the final administration. […]

Row | Compound | AR degradation in tumor (%)
1 | N#Cc1ccc(N2CCC(C(=O)Nc3ccc(OC4CCN(CC5CCN(c6ccc(N[C@H]7CCC(=O)NC7=O)cc6F)CC5)CC4)cn3)CC2)cc1Cl [Example 9, (S)-1-(3-chloro-4-cyanophenyl)-N-(5-((1-((1-(4-((2,6-dioxopiperidin-3-yl)amino)-2-fluorophenyl)piperidin-4-yl)methyl)piperidin-4-yl)oxy)pyridin-2-yl)piperidine-4-carboxamide] | 97
2 | N#Cc1ccc(N2CCC(C(=O)Nc3ccc(OC4CCN(CC5CCN(c6ccc(N[C@H]7CCC(=O)NC7=O)cc6F)CC5)CC4)cn3)CC2)cc1C(F)(F)F [Example 2, (S)-1-(4-cyano-3-(trifluoromethyl)phenyl)-N-(5-((1-((1-(4-((2,6-dioxopiperidin-3-yl)amino)-2-fluorophenyl)piperidin-4-yl)methyl)piperidin-4-yl)oxy)pyridin-2-yl)piperidine-4-carboxamide] | 96
3 | N#Cc1ccc(N2CCC(C(=O)Nc3ccc(OC4CCN(CC5CCN(c6ccc(NC7CCC(=O)NC7=O)cc6F)CC5)CC4)cn3)CC2)cc1C(F)(F)F (stereo not shown) [Example 1, 1-(4-cyano-3-(trifluoromethyl)phenyl)-N-(5-((1-((1-(4-((2,6-dioxopiperidin-3-yl)amino)-2-fluorophenyl)piperidin-4-yl)methyl)piperidin-4-yl)oxy)pyridin-2-yl)piperidine-4-carboxamide] | 86
4 | N#Cc1ccc(N2CCC(C(=O)Nc3ccc(OC4CCN(CC5CCN(c6ccc(N[C@@H]7CCC(=O)NC7=O)cc6F)CC5)CC4)cn3)CC2)cc1C(F)(F)F [Example 3, (R)-1-(4-cyano-3-(trifluoromethyl)phenyl)-N-(5-((1-((1-(4-((2,6-dioxopiperidin-3-yl)amino)-2-fluorophenyl)piperidin-4-yl)methyl)piperidin-4-yl)oxy)pyridin-2-yl)piperidine-4-carboxamide] | 89
